Structures can show the parent of a compound that is named as a salt.

In general, Km refers to the concentration of substrate that gives half-maximal velocity. One may read the IC50 as the concentration at which inhibition is half-maximal. A word on the melting point: it is the temperature, or range, at which the solid turns liquid.

T4 sequence (P52699 19-246 limits assumed): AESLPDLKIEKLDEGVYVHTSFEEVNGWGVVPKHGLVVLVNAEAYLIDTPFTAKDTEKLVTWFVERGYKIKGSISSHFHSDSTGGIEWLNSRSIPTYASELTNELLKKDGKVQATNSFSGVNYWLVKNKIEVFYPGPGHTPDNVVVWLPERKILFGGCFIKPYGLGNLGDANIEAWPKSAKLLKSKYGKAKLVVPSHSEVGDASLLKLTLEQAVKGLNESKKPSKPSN
T1 sequence (O31272 28-255 limits assumed): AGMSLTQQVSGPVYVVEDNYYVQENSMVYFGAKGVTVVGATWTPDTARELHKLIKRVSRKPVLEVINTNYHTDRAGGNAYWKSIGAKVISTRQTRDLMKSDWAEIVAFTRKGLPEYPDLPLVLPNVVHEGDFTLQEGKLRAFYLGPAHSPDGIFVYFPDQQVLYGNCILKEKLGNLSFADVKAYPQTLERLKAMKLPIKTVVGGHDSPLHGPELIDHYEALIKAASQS

In one data set the test system is C[C@@H](O)[C@H]1C(=O)N2C(C(=O)O)=C(SCCN=CN)C[C@H]12. Description: purified protein, by the assay type. The following applies: other: test conditions: 30 mM Tris pH 7.0, 25 °C.
Regarding ImiS (Aeromonas veronii), the Km came to 52 µM.

Another data set deals with Cc1nnc(SCC2=C(C(=O)O)N3C(=O)[C@@H](NC(=O)Cn4cnnn4)[C@H]3SC2)s1. Description: purified protein, by the assay type. To be noted: other: test conditions: 30 mM Tris pH 7.0, 25 °C.
Regarding IMP-1 (Serratia marcescens), the Km is 73 µM.
The same measure, in the same setting: the value for L1 (Stenotrophomonas maltophilia) was 60 µM; that for NDM-1 (Klebsiella pneumoniae) was 15 µM; that for VIM-2 (Escherichia coli) was 97 µM.

The next data set has as its target T1, ImiS (Aeromonas veronii, UniProt O31272).
T1 construct: made in house; host or cells: E. coli BL21 (DE3), plasmid pET-26b-ImiS
Description: biochemical. The following applies: read-out: IC50 against ImiS; substrate imipenem 40 µM, 30 mM Tris pH 7.0, 25 °C, 5 min pre-incubation, inhibitor up to 200 μM. More on the design: species or system Aeromonas veronii bv. sobria. The method, then:
(§1) The dithiocarbamates, MβLs and substrates samples were prepared with 30 mM Tris, pH 7.0. […] Enzymes and inhibitors were pre-incubated for 5 min before adding substrate. […] The IC50 values were nonlinearly fitted by plotting the average percentage inhibition against inhibitor concentration. The inhibition modes of DC1 to ImiS, NDM-1 and L1 were assayed by generating Lineweaver–Burk plots, and Ki values were obtained by fitting initial velocity versus substrate concentration at each inhibitor concentration, using SigmaPlot 12.0 (Systat Software Inc., San Jose, CA, USA).
(§2) To evaluate the inhibitory activity of the dithiocarbamates, we over-expressed and purified MβLs NDM-1, VIM-2 and IMP-1 (B1), ImiS (B2), and L1 (B3) from three subclasses as previously reported. The inhibition experiments were performed with an Agilent UV8453 spectrometer. […] The concentrations of inhibitors were varied between 0 and 200 μM. The initial reaction rates were determined in the absence and presence of inhibitors in triplicate, and the generated average values were recorded.
For the molecule `O=C(Cc1ccccc1)NNC(=S)[S][K]` [DC2], the IC50 was 2.5 ± 0.1 µM.
Consider `O=C(NNC(=S)[S][K])c1ccc(O)cc1` [DC3], for which the IC50 was > 200 µM.
Still for that read-out and setting: the value for `Nc1ccccc1C(=O)NNC(=S)[S][K]` [DC4] was 1.08 ± 0.05 µM; that for `O=C(NNC(=S)[S][K])c1ccc(Cl)cc1` [DC5] was 129 ± 2.1 µM; that for `O=C(NNC(=S)[S][K])c1cccc(Br)c1` [DC6] was 2.56 ± 0.05 µM.
Same read-out and setting: the figure for `CC(C)(C)c1ccc(C(=O)NNC(=S)[S][K])cc1` [DC7] is > 200 µM; for `O=C(CCc1ccccc1)NNC(=S)[S][K]` [DC9, Potassium 2-(3-phenylpropanoyl)hydrazine-1-carbodithioate] it is 156 ± 2.2 µM.

The target in the next data set is T2, VIM-2 (Escherichia coli, UniProt Q5U7L7).
T2 construct: made in house; host or cells: E. coli BL21 (DE3), plasmid pET24a-VIM-2
Experiment: not given
It is filed as biochemical. The following applies: read-out: IC50 against VIM-2; substrate cefazolin 40 µM, 30 mM Tris pH 7.0, 25 °C, 5 min pre-incubation, inhibitor up to 200 μM. The method, then:
as §1, §2
For the molecule `O=C(Cc1ccccc1)NNC(=S)[S][K]` [DC2], the IC50 is > 200 µM.
Same read-out and setting: the figure for `O=C(NNC(=S)[S][K])c1ccc(O)cc1` [DC3] is 82.8 ± 1.1 µM.
On the same count and under the same terms, the value for `Nc1ccccc1C(=O)NNC(=S)[S][K]` [DC4] was 139 ± 2.05 µM.
Same read-out and setting: the figure for `O=C(NNC(=S)[S][K])c1ccc(Cl)cc1` [DC5] is > 200 µM; for `O=C(NNC(=S)[S][K])c1cccc(Br)c1` [DC6] it is > 200 µM; for `CC(C)(C)c1ccc(C(=O)NNC(=S)[S][K])cc1` [DC7] it is 63.5 ± 1.3 µM.
Consider `O=C(CCc1ccccc1)NNC(=S)[S][K]` [DC9, Potassium 2-(3-phenylpropanoyl)hydrazine-1-carbodithioate], for which the IC50 was found to be 115 ± 3.1 µM.

For the next data set, the target named is T3, NDM-1 (Klebsiella pneumoniae, UniProt C7C422).
T3 construct: made in house; host or cells: E. coli BL21 (DE3), plasmid pET26b-NDM-1
T3 sequence (C7C422 29-270 limits assumed): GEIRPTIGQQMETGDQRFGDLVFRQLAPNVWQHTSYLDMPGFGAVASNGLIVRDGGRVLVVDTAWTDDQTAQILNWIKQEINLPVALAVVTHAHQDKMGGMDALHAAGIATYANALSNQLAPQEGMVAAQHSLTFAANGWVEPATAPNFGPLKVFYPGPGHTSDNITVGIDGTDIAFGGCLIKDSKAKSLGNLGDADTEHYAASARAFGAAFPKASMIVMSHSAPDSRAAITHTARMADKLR
Description: Time-dependence inhibition experiment, residual activity. It is filed as biochemical. The following applies: 13 nM NDM-1 incubated with inhibitor at its IC50 for 8 h.
For `O=C(NNC(=S)[S][K])c1ccccc1` [DC8], the “time dependence of NDM-1 inhibition (residual activity)” value is “no time-dependent inhibition”.
The same measure, in the same setting: the entry for `O=C(NNC(=S)[S][K])C(O)c1ccccc1` (centres unmarked) [DC10, Potassium 2-(2-hydroxy-2-phenylacetyl)hydrazine-1-carbodithioate] is “no time-dependent inhibition”.

For another data set, the system named is mouse fibroblast cells (L-929). Description: Cytotoxicity assay (MTT). Type of data set: cell-based. The following applies: concentration as high as 250 μM, 48 h. The method, then:
The cytotoxicity assays were performed to evaluate the toxicity of DC1, DC3, DC7 and DC9 in mouse fibroblast cells (L-929). The cells were seeded into 96-well plates at a cell density of 1.0 × 10^4 cells/well, in 100 μL of culture medium and maintained for 24 h. Then, the inhibitors with working concentrations (15.6, 31.25, 62.5, 125, 250, and 500 μM) were added to the 96-well plates and incubated for another 48 h. Three wells containing only cells were suspended in a mixture solution of 98 μL complete medium, as controls for cell viability without inhibitors. Three wells containing only the complete medium were used as blank controls. Following that, the medium was removed, and 100 μL of fresh culture medium and 10 μL MTT were added to each well. After incubation for 4 h, the trays were then vigorously shaken to solubilize the formed product, and the absorbance, at a wavelength of 490 nm, was read on a microplate reader and analyzed. All experiments were conducted in triplicate, and the data are expressed as mean ± standard deviation.
The potential toxicity of dthiocarbamates DC1, DC3, DC7 and DC9 as representatives was assayed using the mouse fibroblast cells (L929) treated with different concentrations of inhibitors (15.625, 31.25, 62.5, 125, 250 and 500 μM).
Regarding `O=C(NNC(=S)[S][K])c1ccc(O)cc1` [DC3], the “survival rate of L929 mouse cells” value is on record as “higher than 80%”.
Still for that read-out and setting: the entry for `CC(C)(C)c1ccc(C(=O)NNC(=S)[S][K])cc1` [DC7] is “higher than 80%”; for `O=C(CCc1ccccc1)NNC(=S)[S][K]` [DC9, Potassium 2-(3-phenylpropanoyl)hydrazine-1-carbodithioate] it is “higher than 80%”.

A further data set addresses T4, IMP-1 (Serratia marcescens, UniProt P52699).
T4 construct: made in house; host or cells: E. coli BL21 (DE3), plasmid pET26b-IMP-1
Nature of the data set: biochemical. The following applies: read-out: IC50 against IMP-1; substrate cefazolin 40 µM, 30 mM Tris pH 7.0, 25 °C, 5 min pre-incubation, inhibitor up to 200 μM. The method, then: as §1, §2
For the molecule `O=C(Cc1ccccc1)NNC(=S)[S][K]` [DC2], the IC50 came out at 166 ± 2.7 µM.
For `O=C(NNC(=S)[S][K])c1ccc(O)cc1` [DC3], the IC50 was > 200 µM.
On to `Nc1ccccc1C(=O)NNC(=S)[S][K]` [DC4], for which the IC50 was 103 ± 1.45 µM.
For `O=C(NNC(=S)[S][K])c1ccc(Cl)cc1` [DC5], the IC50 was > 200 µM.
As for `O=C(NNC(=S)[S][K])c1cccc(Br)c1` [DC6], the IC50 is > 200 µM.
Regarding `CC(C)(C)c1ccc(C(=O)NNC(=S)[S][K])cc1` [DC7], the IC50 came to 96.4 ± 1.2 µM.
Same read-out and setting: the value for `O=C(CCc1ccccc1)NNC(=S)[S][K]` [DC9, Potassium 2-(3-phenylpropanoyl)hydrazine-1-carbodithioate] was 86.2 ± 0.9 µM.

The target of the next data set is T3, NDM-1. Description: biochemical. The following applies: read-out: IC50 against NDM-1; substrate cefazolin 40 µM, 30 mM Tris pH 7.0, 25 °C, 5 min pre-incubation, inhibitor up to 200 μM. The method, then:
as §1, §2
On to `O=C(Cc1ccccc1)NNC(=S)[S][K]` [DC2], for which the IC50 was determined as 5.64 ± 0.1 µM.
Still for that read-out and setting: the value for `O=C(NNC(=S)[S][K])c1ccc(O)cc1` [DC3] was 67.1 ± 0.9 µM; that for `Nc1ccccc1C(=O)NNC(=S)[S][K]` [DC4] was 11.4 ± 0.4 µM; that for `O=C(NNC(=S)[S][K])c1ccc(Cl)cc1` [DC5] was 91.3 ± 1.7 µM.
Regarding `O=C(NNC(=S)[S][K])c1cccc(Br)c1` [DC6], the IC50 is 15.2 ± 0.9 µM.
For the molecule `CC(C)(C)c1ccc(C(=O)NNC(=S)[S][K])cc1` [DC7], the IC50 amounted to 0.52 ± 0.01 µM.
On the same count and under the same terms, the figure for `O=C(CCc1ccccc1)NNC(=S)[S][K]` [DC9, Potassium 2-(3-phenylpropanoyl)hydrazine-1-carbodithioate] is 62.7 ± 1.05 µM.

The target in a further data set is T5, L1 (Stenotrophomonas maltophilia, UniProt P52700).
T5 construct: made in house; host or cells: E. coli BL21 (DE3), plasmid pET-26b-L1
T5 sequence (P52700 34-290): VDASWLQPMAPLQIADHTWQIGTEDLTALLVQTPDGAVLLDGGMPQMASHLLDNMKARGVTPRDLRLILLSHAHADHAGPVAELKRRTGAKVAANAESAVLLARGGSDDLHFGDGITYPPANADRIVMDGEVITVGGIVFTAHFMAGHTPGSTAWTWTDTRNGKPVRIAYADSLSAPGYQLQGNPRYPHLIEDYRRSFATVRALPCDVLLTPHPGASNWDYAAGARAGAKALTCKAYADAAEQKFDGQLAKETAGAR
Description: biochemical. The following applies: read-out: IC50 against L1; substrate cefazolin 40 µM, 30 mM Tris pH 7.0, 25 °C, 5 min pre-incubation, inhibitor up to 200 μM. The method, then: as §1, §2
As to `O=C(Cc1ccccc1)NNC(=S)[S][K]` [DC2], the IC50 is 86.8 ± 1.6 µM.
Still for that read-out and setting: the value for `O=C(NNC(=S)[S][K])c1ccc(O)cc1` [DC3] was > 200 µM.
In the case of `Nc1ccccc1C(=O)NNC(=S)[S][K]` [DC4], the IC50 was 177 ± 2.8 µM.
On to `O=C(NNC(=S)[S][K])c1ccc(Cl)cc1` [DC5], for which the IC50 is > 200 µM.
Still for that read-out and setting: the value for `O=C(NNC(=S)[S][K])c1cccc(Br)c1` [DC6] was 154 ± 3.2 µM.
With `CC(C)(C)c1ccc(C(=O)NNC(=S)[S][K])cc1` [DC7], the IC50 stood at 191 ± 4 µM.
Same read-out and setting: the value for `O=C(NNC(=S)[S][K])c1ccccc1` [DC8] was 25.81 ± 0.12 µM; that for `O=C(CCc1ccccc1)NNC(=S)[S][K]` [DC9, Potassium 2-(3-phenylpropanoyl)hydrazine-1-carbodithioate] was > 200 µM.

For a further data set, the system named is E. coli BL21 expressing NDM-1. Description: MIC determination, broth micro-dilution, cefazolin with inhibitor. Type of data set: cell-based. To be noted: E. coli BL21-NDM-1; 64 μg/mL inhibitor. The method, then: (§3) The minimum inhibitory concentration (MIC) of antibiotics, both alone and in the presence of enzyme inhibitors, was determined using the broth micro-dilution method. Single colonies of E. coli BL21, containing plasmid, pET26b-NDM-1, pET26b-ImiS or pET26b-L1 in lysogeny broth agar plates, were transferred into 5 mL of Mueller–Hinton (MH) liquid medium. Strains grown in MH medium to OD600 = 0.45 were used as inocula, after an 84-fold dilution to 1 × 10^5 CFU/mL in MH medium. […] Compound DCs as inhibitors were dissolved in MH media, to prepare 1024, 512, 256, 128, 64 and 32 μg/mL stock solutions. The prepared solutions with different antibiotic concentrations (50 μL) were diluted to 100 μL, with different concentrations of inhibitor solution (50 μL), then 100 μL inoculum was added sequentially into the prepared solutions, to yield a quarter of the initial concentrations. The mixtures were incubated at 37 °C for 16 h. […] Each measurement was performed in duplicate.
(§4) The ability of the dithiocarbamate derivatives to inhibit MβLs, and to restore the antimicrobial activity of antibiotics, was investigated by determining the minimum inhibitory concentrations (MICs) of existing antibiotics in the presence and absence of DC1-10, as previously reported. E. coli BL21 (DE3) containing plasmids pET26b-NDM-1, pET26b-ImiS and pET26b-L1 were used to assess these inhibitors.
Consider `O=C(NNC(=S)[S][K])c1ccc(O)cc1` [DC3], for which the “fold reduction in MIC of cefazolin” value is reported as “no inhibitory effects”.

Another data set has as its system E. coli BL21 expressing L1. The description is as above. The following applies: 64 μg/mL inhibitor. Type of data set: cell-based. The method, then:
as §3, §4
Regarding `O=C(NNC(=S)[S][K])c1ccc(O)cc1` [DC3], the “fold reduction in MIC of cefazolin” value is listed as “no inhibitory effects”.

The subject of the next data set is E. coli BL21 expressing ImiS. Description: MIC determination, broth micro-dilution, imipenem with inhibitor. Type of data set: cell-based. The following applies: 64 μg/mL inhibitor. The method, then: as §3, §4
(Broth dilution looks for growth in wells or tubes with falling amounts of substance.)
Regarding `O=C(NNC(=S)[S][K])c1ccc(O)cc1` [DC3], the “fold reduction in MIC of imipenem” value is given as “no inhibitory effects”.

System in a further data set: not given
Experiment: not given
Conditions: not given
Turning to `O=C(CCc1ccccc1)NNC(=S)[S][K]` (as salt: potassium) [DC9, Potassium 2-(3-phenylpropanoyl)hydrazine-1-carbodithioate], the melting point lay in the range of 170 to 171 °C.
Still for that read-out and setting: the figure for `O=C(Cc1ccccc1)NNC(=S)[S][K]` [DC2] is 150 to 151 °C; for `O=C(NNC(=S)[S][K])c1ccc(O)cc1` [DC3] it is 298 to 299 °C; for `Nc1ccccc1C(=O)NNC(=S)[S][K]` [DC4] it is 233 to 234 °C.
The same measure, in the same setting: the value for `O=C(NNC(=S)[S][K])c1ccc(Cl)cc1` [DC5] was > 300 °C.
Consider `O=C(NNC(=S)[S][K])c1cccc(Br)c1` [DC6], for which the melting point was > 300 °C.
Same read-out and setting: the value for `CC(C)(C)c1ccc(C(=O)NNC(=S)[S][K])cc1` [DC7] was > 300 °C.

Source of the values: publication PMC6920875, “Dithiocarbamate as a Valuable Scaffold for the Inhibition of Metallo-β-Lactmases” (Biomolecules, 2019).
